Where two headings read alike, the source gives them in different places. Where a SMILES comes first, the peptide text is derived from it.
How the values were obtained:
[1] = test system: porcine pepsase and trypsase; test: Simulated digestive stability of peptides (pepsase then trypsase); format: in vitro ADME; conditions: in words; 5.0 mg/mL peptide, pepsase 5000 U/mL pH 3.0 37 °C 2 h, then trypsase 100 U/mL pH 7.0 37 °C 2 h, LC-MS
Procedure: The in vitro digestibility of the peptides was determined according to the method described by Ohanenye et al. with some modifications. Briefly, 5.0 mg/mL peptides were mixed with 5000 U/mL porcine pepsase (pH 3.0). The mixture was incubated with continuous shaking in a water bath at 37 ℃ for 2 h. Then, the mixture was adjusted to pH 7.0, and a final concentration of 100 U/mL trypsase was added, followed by continuous shaking at 37 ℃ for another 2 h. After digestion, the enzyme was inactivated, and the mixture was incubated in a water bath (100 ℃) for 20 min. Subsequently, the mixture was centrifuged at 6000 rpm for 20 min, after which the supernatants were collected for further analysis. The concentrations of peptides in the digestions and TPH were determined via AB SCIEX QTrap 6600+ (AB Sciex, Framingham, Massachusetts).

[2] = Blood pharmacokinetics of VAMP, 10 mg/kg i.v. or p.o.; format: in vivo; conditions: mouse, po
Procedure: FIGURE 2 VAMP inhibits intestinal dipeptidyl peptidase IV (DPP‐IV) and increases the abundance of A. muciniphila. (A) The experimental scheme for (B–O) is shown, n = 6 mice/group. HFD‐fed mice were treated with PBS (vehicle group) or VAMP (50 mg/kg, VAMP group) for 8 weeks by oral gavage. (B) The body weight change, (C) FBG level, (D) intestinal active GLP‐1 levels, (E) plasma active GLP‐1 levels, (F) OGTT curve, (G) AUC of the OGTT, and (H) HOMA‐IR index were evaluated. (I) Intestinal permeability was measured by plasma fluorescence intensity after gavage with FITC‐dextran 4000. (J) The plasma levels of LPS, (K) TNF‐α, and (L) IL‐1β were determined. (M) Carnoy‐fixed colonic tissue sections were stained with Alcian blue/periodic acid‐Schiff. Scale bars, 100 µm. […] (O) The relative expression of Tjp1, Ocln, Cldn1, Cldn3, Cldn4, Cldn5, and Muc2 mRNAs in colonic tissue was determined. (P) The blood pharmacokinetics of 10 mg/kg VAMP administered by injection (i.v.) or gavage (p.o.) over time were evaluated. (Q) The tissue distribution of VAMP at the time of peak plasma concentration (30 min) after the administration of 10 mg/kg VAMP by gavage was determined (n = 4). […] (U) The change in bacterial abundance at the species level after VAMP treatment was determined via random forest analysis. […]
(§1) We first determined the VAMP metabolic kinetics in model mice.

[3] = Tissue distribution of VAMP 30 min after 10 mg/kg by gavage; format: in vivo, mouse; conditions: for Tissue distribution, relative proportion in Heart / Tissue distribution, relative proportion in Intestinal content / Tissue distribution, relative proportion in Intestinal tissue / Tissue distribution, relative proportion in Kidney / Tissue distribution, relative proportion in Liver / Tissue distribution, relative proportion in Lung / Tissue distribution, relative proportion in Spleen: 10 mg/kg by gavage, 30 min
Procedure: FIGURE 2 VAMP inhibits intestinal dipeptidyl peptidase IV (DPP‐IV) and increases the abundance of A. muciniphila. (A) The experimental scheme for (B–O) is shown, n = 6 mice/group. HFD‐fed mice were treated with PBS (vehicle group) or VAMP (50 mg/kg, VAMP group) for 8 weeks by oral gavage. (B) The body weight change, (C) FBG level, (D) intestinal active GLP‐1 levels, (E) plasma active GLP‐1 levels, (F) OGTT curve, (G) AUC of the OGTT, and (H) HOMA‐IR index were evaluated. (I) Intestinal permeability was measured by plasma fluorescence intensity after gavage with FITC‐dextran 4000. (J) The plasma levels of LPS, (K) TNF‐α, and (L) IL‐1β were determined. (M) Carnoy‐fixed colonic tissue sections were stained with Alcian blue/periodic acid‐Schiff. Scale bars, 100 µm. (N) Blinded colonic mucus layer measurements were made from Alcian blue‐stained sections. (O) The relative expression of Tjp1, Ocln, Cldn1, Cldn3, Cldn4, Cldn5, and Muc2 mRNAs in colonic tissue was determined. (P) The blood pharmacokinetics of 10 mg/kg VAMP administered by injection (i.v.) or gavage (p.o.) over time were evaluated. (Q) The tissue distribution of VAMP at the time of peak plasma concentration (30 min) after the administration of 10 mg/kg VAMP by gavage was determined (n = 4). (R) PCoA was performed using the Bray‒Curtis distance. (S, T) Taxonomic cladograms were generated by LEfSe analysis. The blue color indicates enriched taxa in the VAMP group, and the red color indicates enriched taxa in the vehicle group. The size of each circle is proportional to the taxon's abundance. (U) The change in bacterial abundance at the species level after VAMP treatment was determined via random forest analysis. (V) Growth curve of A. muciniphila cultured in BHI media supplemented with VAMP (50 μM) or PBS (Vehicle) and then grown anaerobically. (W−Y) RNA‐seq analysis of the A. muciniphila cultured in BHI media supplemented with VAMP (50 μM) or PBS control (Vehicle) was performed (n = 3). (W) PCA of transcriptome. (X) Biofunction changes of A. muciniphila by VAMP treatment via KEGG enrichment analysis. (Y) Volcano plot of transcriptome sequencing of Vehicle and VAMP groups. (Z) Levels of peptidoglycan by VAMP treatment. *p < 0.05 and **p < 0.01 versus the vehicle group. AUC, area under the curve; BHI, brain heart infusion; FBG, fasting blood glucose; GLP‐1, glucagon‐like peptide‐1; HOMA‐IR, homeostatic model assessment of insulin resistance; IL‐1β, interleukin‐1β; LEfSe, linear discriminant analysis effect size; LPS, lipopolysaccharide; OGTT, oral glucose tolerance test; PCoA, principal coordinate analysis; TNF‐α, tumor necrosis factor α.
as §1

in vitro [4] = format: in vitro ADME; conditions: cells or culture medium, VAMP (%) remaining
From the text: (§2) The levels of VAMP at different time points were quantified by targeted metabolomics.

[5] = test system: faeces-derived bacterial community; test: in vitro; format: in vitro ADME
From the text: as §2

in vitro [6] = format: in vitro ADME, Akkermansia muciniphila; conditions: cells or culture medium, VAMP remaining, incubated with A. muciniphila
From the text: as §2

DPP-IV = DPP-IV (Homo sapiens, UniProt P27487); test: DPP-IV inhibition in iPSC-induced intestinal organoids (supernatant, DPP-IV-Glo kit); format: cell-based; parameters: endogenous in cells; host or cells: iPSC-induced intestinal organoids; conditions: Fig 1R, 24 h, read-out: Inhibitory effect on DPP-IV; for inhibition at 100 µg/mL: VAMP 100 μg/mL; for inhibition at 200 µg/mL: VAMP 200 μg/mL; for inhibition at 500 µg/mL: VAMP 500 μg/mL
Chain of DPP-IV (P27487 whole entry): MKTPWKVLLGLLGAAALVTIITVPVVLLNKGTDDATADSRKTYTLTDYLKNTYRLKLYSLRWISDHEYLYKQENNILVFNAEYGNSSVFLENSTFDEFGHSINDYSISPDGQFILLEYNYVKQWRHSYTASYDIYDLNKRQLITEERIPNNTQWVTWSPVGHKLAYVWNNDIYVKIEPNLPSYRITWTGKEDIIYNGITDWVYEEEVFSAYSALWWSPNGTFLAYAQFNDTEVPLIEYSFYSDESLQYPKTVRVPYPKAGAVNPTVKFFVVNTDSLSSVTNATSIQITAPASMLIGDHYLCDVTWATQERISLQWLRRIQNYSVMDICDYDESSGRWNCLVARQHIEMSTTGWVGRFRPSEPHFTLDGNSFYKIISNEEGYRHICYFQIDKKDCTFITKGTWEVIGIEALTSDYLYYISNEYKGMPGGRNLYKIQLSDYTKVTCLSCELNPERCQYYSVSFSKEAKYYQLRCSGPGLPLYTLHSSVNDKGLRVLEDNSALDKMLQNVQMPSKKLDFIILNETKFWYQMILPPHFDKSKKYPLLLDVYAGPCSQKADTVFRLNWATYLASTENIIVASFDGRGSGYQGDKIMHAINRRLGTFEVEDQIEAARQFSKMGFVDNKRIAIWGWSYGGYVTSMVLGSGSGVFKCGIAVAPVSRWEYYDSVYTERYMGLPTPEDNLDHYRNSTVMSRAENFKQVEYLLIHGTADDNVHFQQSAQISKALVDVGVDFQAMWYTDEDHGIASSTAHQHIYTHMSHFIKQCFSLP
From the text: iPSC-induced intestinal organoids were established according to the manufacturer’s instructions (STEMdiff^TM Intestinal Organoid kit).

SMILES: CSCC[C@H](NC(=O)[C@H](C)NC(=O)[C@@H](N)C(C)C)C(=O)N1CCC[C@H]1C(=O)O [VAMP] (H-VAMP-OH)
- Resistance to simulated gastric pepsase and trypsase digestion [1]: readily resistant
- bioavailability ([2]; blood, mice, 10 mg/kg p.o. vs i.v., printed in picture Fig 2P): 10.5%
- Tmax ([2]; plasma, 10 mg/kg by gavage, read-out: Time of peak plasma concentration (converted)): 30 min
- Tissue distribution, relative proportion in Heart ([3]; animal 1): 0.7129%
- Tissue distribution, relative proportion in Intestinal content ([3]; animal 1): 72.8435%
- Tissue distribution, relative proportion in Intestinal tissue ([3]; animal 1): 17.3859%
- Tissue distribution, relative proportion in Kidney ([3]; animal 1): 1.873%
- Tissue distribution, relative proportion in Liver ([3]; animal 1): 2.36%
- Tissue distribution, relative proportion in Lung ([3]; animal 1): 1.2931%
- Tissue distribution, relative proportion in Spleen ([3]; animal 1): 3.531%
- Tissue distribution, relative proportion in Heart ([3]; animal 2): 0.3824%
- Tissue distribution, relative proportion in Intestinal content ([3]; animal 2): 73.0882%
- Tissue distribution, relative proportion in Intestinal tissue ([3]; animal 2): 19.9706%
- Tissue distribution, relative proportion in Kidney ([3]; animal 2): 1.279%
- Tissue distribution, relative proportion in Liver ([3]; animal 2): 2.103%
- Tissue distribution, relative proportion in Lung ([3]; animal 2): 0.9118%
- Tissue distribution, relative proportion in Spleen ([3]; animal 2): 2.265%
- Tissue distribution, relative proportion in Heart ([3]; animal 3): 0.4562%
- Tissue distribution, relative proportion in Intestinal content ([3]; animal 3): 74.7307%
- Tissue distribution, relative proportion in Intestinal tissue ([3]; animal 3): 19.1872%
- Tissue distribution, relative proportion in Kidney ([3]; animal 3): 0.6681%
- Tissue distribution, relative proportion in Liver ([3]; animal 3): 1.699%
- Tissue distribution, relative proportion in Lung ([3]; animal 3): 0.5703%
- Tissue distribution, relative proportion in Spleen ([3]; animal 3): 2.689%
- Tissue distribution, relative proportion in Heart ([3]; animal 4): 0.5116%
- Tissue distribution, relative proportion in Intestinal content ([3]; animal 4): 76.0476%
- Tissue distribution, relative proportion in Intestinal tissue ([3]; animal 4): 16.2858%
- Tissue distribution, relative proportion in Kidney ([3]; animal 4): 1.305%
- Tissue distribution, relative proportion in Liver ([3]; animal 4): 2.163%
- Tissue distribution, relative proportion in Lung ([3]; animal 4): 0.882%
- Tissue distribution, relative proportion in Spleen ([3]; animal 4): 2.805%
- VAMP remaining in the intestinal content at the time of peak plasma concentration ([3]; after gavage): 74.18%
- remaining at 3 h, 100 μM (in vitro [4]; 3 h): 98.5%
- remaining at 6 h, 100 μM (in vitro [4]; 6 h): 84.6%
- remaining at 12 h, 100 μM (in vitro [4]; 12 h): 51.7%
- remaining at 36 h, 100 μM (in vitro [4]; 36 h): 2.1%
- remaining at 48 h, 100 μM (in vitro [4]; 48 h): 0%
- Degradation of VAMP in faeces-derived microbial community culture [5]: degraded by gut microbiota
- remaining at 3 h, 100 μM (in vitro [6]; time 3): 98.6%
- remaining at 6 h, 100 μM (in vitro [6]; time 6): 95.4%
- remaining at 9 h, 100 μM (in vitro [6]; time 9): 93.3%
- remaining at 12 h, 100 μM (in vitro [6]; time 12): 79.6%
- remaining at 24 h, 100 μM (in vitro [6]; time 24): 28.1%
- remaining at 36 h, 100 μM (in vitro [6]; time 36): 21.4%
- remaining at 48 h, 100 μM (in vitro [6]; time 48): 19.3%
- inhibition at 100 µg/mL (DPP-IV; replicate 1): 72.5%
- inhibition at 100 µg/mL (DPP-IV; replicate 2): 69.3%
- inhibition at 100 µg/mL (DPP-IV; replicate 3): 50.4%
- inhibition at 200 µg/mL (DPP-IV; replicate 1): 82.5%
- inhibition at 200 µg/mL (DPP-IV; replicate 2): 80.3%
- inhibition at 200 µg/mL (DPP-IV; replicate 3): 84.2%
- inhibition at 500 µg/mL (DPP-IV; replicate 1): 92.1%
- inhibition at 500 µg/mL (DPP-IV; replicate 2): 89.1%
- inhibition at 500 µg/mL (DPP-IV; replicate 3): 84.8%

Reference: article PMC12527977, “Discovery of a novel tetrapeptide as glucose homeostasis modulator with bifunctionalities of targeting DPP‐IV and microbiota” (iMeta, 2025)
